For orientation: inhibition means the relative decrease from the control value, in per cent. Usually GI50 stands for the concentration that inhibits growth by half. Read a low GI50 as greater sensitivity of the cells. One may read the melting point as the temperature of the solid-liquid transition.

The text below walks through data of patent publication US9540325B2, “N1-cyclic amine-N5-substituted phenyl biguanide derivatives, methods of preparing the same and pharmaceutical composition comprising the same” (Immunomet Therapeutics, Inc., priority 2011, dated 2017).

Bounds are passed on as bounds.

One series concerns HCT116 cells. Put plainly: Measurement of effect of inhibiting cancer cell proliferation (MTT). The class given is cell-based, human. Conditions: Homo sapiens; for inhibition at 100 µM: HCT-116, 100 μM, 48 hours, read-out: Cell Growth Inhibition (%) at 100 μM; for GI50: HCT-116, 48 h. An excerpt:
HCT116 cells derived from human colorectal cancer (commercially available from the Korean Cell Line Bank) were used, and the effect of inhibiting cancer cell proliferation of the biguanide derivative was confirmed by measuring the concentration value (cell growth inhibition concentration, GIC50) at which cell growth was inhibited by 50% using a 3-(4,5-dimethylthiazol-2-yl)-2,5-diphenyltetrazolium bromide (MTT) reagent.
First, HCT116 cells were put on a 96-well plate and cultured in a DMEM medium containing 10% fetal bovine serum for 16 hours so that the cellcount in each well was approximately 5,000. Subsequently, to obtain the GIC50 value of each compound, culture media were treated with 100 μM, 25 μM, 6.25 μM, 1.56 μM or 0.39 μM of the compound, and then cultured for 48 hours. Metformin hydrochloride was used as the control, and the culture media were treated with 25, 12.5, 2.5, 0.5, 0.1 mM metformin hydrochloride, and then tested in the same manner as described in the derivatives synthesized in the examples. In order to determine whether the cells survived after treatment with the compounds, MTT was added to the culture media which were then cultured for another 3 hours. Formed formazane crystals were dissolved using dimethyl sulfoxide (DMSO), and the absorbance of the resulting solution was measured at 560 nm. After the 48-hour culture, […] was indicated as cell viability (%) according to each treated concentration. A cell viability curve graph was plotted and the concentration (GIC50) value of the compound at which the growth was inhibited by 50% was calculated to confirm the inhibition effect of cancer cell proliferation. Also, the cell growth viability (%) when the concentration of the treated biguanide derivative and the metformin hydrochloride as the control were 100 μM was shown.

In the next series the test system is AMPKα. Put plainly: Measurement of AMPK activation effect (AMPKα Thr172 phosphorylation immunoassay) in MCF7 cells. The class given is cell-based, human. As to conditions: 24 hours; for AMPK activation effect at 10 μM (%) / AMPK activation effect at 50 μM (%): relative to untreated cells; for AMPK activation effect AC150: concentration at which AMPK activation reached 150%. The procedure:
MCF7 cells derived from human breast cancer cells (commercially available from the Korean Cell Line Bank) were used, and the AMPK activation effect of the biguanide derivative was confirmed using an AMPKα immunoassay kit (Invitrogen, Catalog No. KHO0651).
MCF7 cells were cultured in a DMEM medium supplemented with 10% fetal bovine serum. Thereafter, the cultured MCF7 cells were put into a 6-well plate with approximately 5×10^5 cells per well and cultured in an incubator supplied with 5% CO2. Culture media were treated with the derivatives synthesized in the examples at contents of 5, 10 and 50 μM, and then cultured for 24 hours. Metformin hydrochloride was used as the control, and the culture media were treated with 0.05, 0.5, 1, 2, 5 and 10 mM metformin hydrochloride, and then tested in the same manner as described in the derivatives synthesized in the examples. Subsequently, the cells were lysed according to a method presented in the operation manual of the AMPKα immunoassay kit, and 20 μg of a cell lysate was then yielded through protein assay. Thereafter, the AMPK activation effect was obtained by determining the degree of phosphorylation of 172nd threonine residue (Thr172) of the AMPKα from the cell lysate according to the method presented in the operation manual of the AMPKα immunoassay kit. […] A curve graph showing AMPK activation according to the concentration of the treated compounds was plotted based on the obtained AMPKα activation results, the concentration (activation concentration 150, AC150) value of the compound whose AMPK activation reached 150% was calculated using a GraphPad Prism 5.0 program, and the degrees of AMPK activation were obtained when concentrations of the treated biguanide derivatives were 10 μM and 50 μM and the metformin hydrochloride was 50 μM

For `Cl.N=C(NC(=N)N1CCCC1)Nc1ccc(Cl)cc1` [Example 17, N1-pyrrolidine-N5-(4-chloro)phenyl biguanide hydrochloride], the melting point lay within 260 to 261 °C. Moreover, in the series with HCT116 cells, the inhibition at 100 µM was 97.4% and the GI50 came to 48.2 µM. Also, in the series on AMPKα, the “AMPK activation effect at 10 μM (%)” value was 167%, the “AMPK activation effect at 50 μM (%)” value came out at 512% and the “AMPK activation effect AC150” value came out at 8.4 µM.
As to `Cl.N=C(NC(=N)N1CCCCC1)Nc1ccc(Cl)cc1` [Example 18, N1-piperidine-N5-(4-chloro)phenyl biguanide hydrochloride], the melting point was 275 to 276 °C. Further, in the series with HCT116 cells, the inhibition at 100 µM was found to be 97.7% and the GI50 came out at 17 µM. Further, in the series on AMPKα, the “AMPK activation effect at 10 μM (%)” value is on record as 281% and the “AMPK activation effect AC150” value was determined as 3.4 µM.
As to `Cl.N=C(NC(=N)N1CCCC1)Nc1cccc(Cl)c1` [Example 19, N1-pyrrolidine-N5-(3-chloro)phenyl biguanide hydrochloride], the melting point is 170 to 172 °C. Also, in the series with HCT116 cells, the inhibition at 100 µM worked out at 74% and growth was halved (GI50) at 55.9 µM. Besides, in the series on AMPKα, the “AMPK activation effect at 10 μM (%)” value is given as 176%, the “AMPK activation effect at 50 μM (%)” value was found to be 586% and the “AMPK activation effect AC150” value amounted to 4.4 µM.
Turning to `Cl.N=C(NC(=N)N1CCOCC1)Nc1cccc(Br)c1` [Example 22, N1-morpholine-N5-(3-bromo)phenyl biguanide hydrochloride], the melting point was in the range of 264 to 265 °C. Also, in the series with HCT116 cells, the inhibition at 100 µM is 44.5% and the GI50 is over 100 µM. In the series with AMPKα, the “AMPK activation effect at 10 μM (%)” value worked out at 127%, the “AMPK activation effect at 50 μM (%)” value amounted to 119% and the “AMPK activation effect AC150” value is 2.3 µM.
For the compound `Cl.N=C(NC(=N)N1CCCC1)Nc1cccc(C(F)(F)F)c1` [Example 23, N1-pyrrolidine-N5-(3-trifluoromethyl)phenyl biguanide hydrochloride], the melting point is 286 to 287 °C. Also, in the series with HCT116 cells, the inhibition at 100 µM was 97.6% and the GI50 is 38.9 µM. Besides, in the series on AMPKα, the “AMPK activation effect at 10 μM (%)” value is given as 199%, the “AMPK activation effect at 50 μM (%)” value was found to be 578% and the “AMPK activation effect AC150” value came out at 4.4 µM.
The compound `Cl.N=C(NC(=N)N1CCCCC1)Nc1cccc(C(F)(F)F)c1` [Example 24, N1-piperidine-N5-(3-trifluoromethyl)phenyl biguanide hydrochloride] showed a melting point of 264 to 265 °C. For the same compound, in the series on HCT116 cells, the inhibition at 100 µM is 97.6% and the GI50 came to 6.9 µM. In addition, in the series on AMPKα, the “AMPK activation effect at 10 μM (%)” value came to 388% and the “AMPK activation effect AC150” value worked out at 2.6 µM.
`Cl.N=C(NC(=N)N1CCC1)Nc1ccc(C(F)(F)F)cc1` [Example 25, N1-azetidine-N5-(4-trifluoromethyl)phenyl biguanide hydrochloride] gave a melting point of 258 to 259 °C. For the same compound, in the series with HCT116 cells, the inhibition at 100 µM was 96.3% and the GI50 came to 27.6 µM. In the series on AMPKα, the “AMPK activation effect at 10 μM (%)” value was 99%, the “AMPK activation effect at 50 μM (%)” value is recorded as 156% and the “AMPK activation effect AC150” value is 46.6 µM.
Compound `Cl.N=C(NC(=N)N1CCCC1)Nc1cccc(OC(F)(F)F)c1` [Example 28, N1-pyrrolidine-N5-(3-trifluoromethoxy)phenyl biguanide hydrochloride] had a melting point of 261 to 262 °C. Further, in the series on HCT116 cells, the inhibition at 100 µM is 97.6% and halving of growth (GI50) required 19 µM. Besides, in the series with AMPKα, the “AMPK activation effect at 10 μM (%)” value was 158%, the “AMPK activation effect at 50 μM (%)” value came out at 424% and the “AMPK activation effect AC150” value came out at 6.9 µM.
Turning to `Cl.N=C(NC(=N)N1CCCCC1)Nc1cccc(OC(F)(F)F)c1` [Example 29, N1-piperidine-N5-(3-trifluoromethoxy)phenyl biguanide hydrochloride], the melting point was in the range of 264 to 266 °C. In the series on HCT116 cells, the inhibition at 100 µM was 98% and it took 5.9 µM to inhibit growth by half (GI50). In the series with AMPKα, the “AMPK activation effect at 10 μM (%)” value is reported as 400% and the “AMPK activation effect AC150” value is 1.1 µM.
